Laboratory results published in patent US20240156893A1 (priority 2021, published 2024).
Several values for one entry are separate records, joined by “and”; a condition that tells them apart may be missing. Equal entries are not always repeated.

Key:
[1] = system: MDCK-II cells; experiment: Parallel residual cytotoxicity test without virus on MDCK-II assay cells (Example 6); format: cell-based, canine; conditions: after filtration, no virus, 1% LTX-7 or 0.2% Triton X-100
Description: (§1) Appropriate controls were also performed.

[2] = system: Influenza A strain A/WSN/33 (H1N1); format: cell-based, Influenza A virus
[3] = system: SARS-CoV-2 isolate England/02/2020; format: cell-based; conditions: SARS-CoV-2, contact time 1 h at RT; 1% LTX-12 (w/v) in PBS or 0.2% Triton in PBS; Vero cells
[4] = system: Vero cells; experiment: Parallel residual cytotoxicity test without virus on Vero assay cells (Example 5); format: cell-based, African green monkey; conditions: after filtration, no virus, 1% LTX-12 or 0.2% Triton
Description: as §1

[5] = system: Influenza A virus (IAV, A/WSN/33); format: cell-based
[6] = system: Respiratory Syncytial Virus (RSV); experiment: TCID50 virucidal assay, LTX-109 against RSV on Hep2 cells; format: cell-based; conditions: for TCID50/ml ± SEM (average virus titre recovered): 1 h incubation, Hep2 cells
Description: The experiment was performed in triplicates.
as §1

[7] = system: MDCK-II cells; experiment: Parallel residual cytotoxicity test without virus on MDCK-II assay cells (Example 2); format: cell-based, canine; conditions: 1% LTX-109, after filtration, no virus
Description: as §1

[8] = system: Lenti virus-like particle expressing VSV-G
[9] = system: Hep2 cells; conditions: 0.1% LTX-109, after filtration, no virus
Description: After 1 hour, the incubation was stopped by adding an excess of cold media, and the formulation was physically separated from the virus through a filter to reduce cytotoxicity on the assay cells. […] Infectious virus was quantified through a serial dilution (a series of ten-fold dilutions) on monolayers of Hep2 cells in microtitre plates (Hep2 cells are mammalian cells capable of displaying a cytopathic effect (CPE) upon viral infection). The starting solution for the serial dilution (i.e. the neat (or undiluted) solution) was obtained by re-suspending the virus that was separated via the filtration step in 1 ml of media. For each dilution of the virus in the dilution series, eight wells of the microtitre plate were tested (i.e. each dilution of virus was applied to eight separate wells, each well containing a Hep2 cell monolayer). Appropriate controls were also performed. […] The TCID50 (TCID50/ml) assay (Tissue Culture Infectious Dose 50 assay) is a type of endpoint dilution assay that is well known in the art and routinely used to quantitatively measure virus titres. TCID50/ml provides a measure of infectious units of virus/ml. “/ml” refers to/ml of the starting solution (i.e. neat/undiluted solution) mentioned above. […]

[10] = system: SARS-CoV-2; format: cell-based

## N=C(N)NCCCC(N)C(=O)NC(Cc1ccc(-c2ccc3ccccc3c2)cc1)C(=O)NC(CCCNC(=N)N)C(=O)NCCc1ccccc1 (centres unmarked) [LTX-7, Arg-Phe(4-(2-Naphthyl))-Arg-NH—CH2—CH2-Ph]
[1]
  Cytotoxicity on assay cells (dilution at which seen): neat
[2]; contact time 1 h, 1% LTX-7 or 0.2% Triton X-100
  Rounded % (reduction): 99.99%
[2]; contact time 1 h at RT, 1% LTX-7 (w/v) in PBS or 0.2% Triton X-100 in PBS, MDCK-II cells
  TCID50/ml ± SEM (average virus titre recovered): 1.58E+01 TCID50/ml and 1.58E+01 ± 0.00E+00 TCID50/ml

## CC(C)(C)c1cc(C(C)(C)C)c2[nH]c(C(C)(C)C)c(CC(NC(=O)C(N)CCCCN)C(=O)NC(CCCCN)C(=O)NCCc3ccccc3)c2c1 (stereo not drawn) [LTX-12, Lys-Tbt-Lys-NH—CH2—CH2-Ph]
[3]
  TCID50/ml ± SEM (average virus titre recovered): 1.58E+02 TCID50/ml and 1.58E+02 ± 0.00E+00 TCID50/ml
[4]
  Cytotoxicity on assay cells: no significant cytotoxicity

## CC(C)(C)c1cc(C(C)(C)C)c2[nH]c(C(C)(C)C)c(CC(NC(=O)C(N)CCCNC(=N)N)C(=O)NC(CCCNC(=N)N)C(=O)NCCc3ccccc3)c2c1 (centres unmarked) [LTX-109]
[5]; 1% LTX-109 (w/v) in PBS, 1 h incubation, MDCK-II cells
  TCID50/ml ± SEM (average virus titre recovered): 1.58E+01 TCID50/ml and 1.58E+01 ± 0.00E+00 TCID50/ml
[5]; 1% LTX-109, 1 h
  Log (virus titre): 1.20 Log
  Percentage (decrease in infectivity vs PBS control): 99.9% and 99.969%
[6]; 0.1% LTX-109 (w/v) in PBS
  TCID50/ml ± SEM (average virus titre recovered): 8.76E+01 TCID50/ml and 8.76E+01 ± 4.11E+01 TCID50/ml
[6]; 0.1% LTX-109, 1 h
  Log (virus titre): 1.78 Log
  Percentage (decrease in infectivity vs PBS control): 99.9% and 99.97%
[6]; 1% LTX-109 (w/v) in PBS
  TCID50/ml ± SEM (average virus titre recovered): 1.58E+02 TCID50/ml and 1.58E+02 ± 0.00E+00 TCID50/ml
[6]; 1% LTX-109, 1 h
  Log (virus titre): 2.20 Log
  Percentage (decrease in infectivity vs PBS control): 99.9% and 99.949%
[7]
  With Filtration: cytotoxicity on assay cells (dilution up to which seen): only up to the first dilution
[8]
  Effect on envelope of Lenti-virus-like particles (electron microscopy): disrupted (or dissolved) envelope
[9]
  With Filtration: cytotoxicity on assay cells: No cytotoxicity
[10]; SARS-CoV-2, 1% LTX-109 (w/v) in PBS, 1 h incubation, Vero cells
  TCID50/ml ± SEM (average virus titre recovered): 1.99E+02 TCID50/ml and 1.99E+02 ± 4.11E+01 TCID50/ml
[10]; SARS-CoV-2, 1% LTX-109, 1 h
  Log (virus titre): 2.28 Log
  Percentage (decrease in infectivity vs PBS control): 99.99% and 99.995%
